From patent US20070219275A1, “Use of Benzophenone Uv Filters for Preventing Tanning” (priority 2004, published 2007)

Tested on: skin pigmentation on the back of Asian volunteers
Experiment: Tanning prevention: skin color (L*a*b*, Minolta chromameter) on the back of volunteers irradiated with simulated solar light
Type: in vivo, human
Conditions: day cream with 5% compound
Description: Skin color was measured in the L*a*b* colour by means of a Minolta CM-508i®) Chromameter).
10 Volunteers of originating from S-E-Asia and with a skinlightness L* between 65.4 and 40.8 were recruited following COLIPA-Guidelines.
The influence of extensive sun exposure on skin pigmentation and the protective effects of day care cosmetics were directly measured on the back of volunteers:
40 and 20 minutes prior to irradiation volunteers treated on the back with 2 mg/cm^2 of cream formulation.
Then tey were irradiated with simulated solar light for 12 weeks, 3-times a week with a dose≦1 MED (Minimal erythema dose; MED adjusted monthly).
The skin of the volunteers was assessed prior to the test and monthly prior to cream application and irradiation.
The influence of extensive sun exposure on skin pigmentation and the protective effects of a day cream containing
was directly measured on the back of Asian volunteers.
The skin of the volunteers was assessed prior to the test and monthly prior to cream application and irradiation for skin color by a Minolta Colorimeter 508i.

[1] = After 4 weeks, irradiation 3x/week <1 MED
[2] = After 8 weeks, irradiation 3x/week <1 MED
[3] = After 12 weeks, irradiation 3x/week <1 MED
[4] = Start, 2 mg/cm^2, 10 Asian volunteers

Structure (SMILES): CCCCCCOC(=O)c1ccccc1C(=O)c1ccc(N(CC)CC)cc1O [compound of formula (3)]
- L* (skin color) [1]: 50.5
- a* (skin color) [1]: 23.1
- b* (skin color) [1]: 22.6
- L* (skin color) [2]: 48.8
- a* (skin color) [2]: 22.6
- b* (skin color) [2]: 23.3
- L* (skin color) [3]: 47.7
- a* (skin color) [3]: 21.5
- b* (skin color) [3]: 24.6
- L* (skin color) [4]: 53.3
- a* (skin color) [4]: 22.5
- b* (skin color) [4]: 22.5
